Experimental findings from patent US20080132477A1, “Macrocyclic Compounds Useful as Bace Inhibitors” (priority 2005, published 2008) are described below.

Data set [1] has as its target T1, Human BACE (Homo sapiens, UniProt P56817).
T1 construct: Recombinant BACE (extracellular domain, expressed in baculovirus and purified using standard methods); made in house
The data set can be described thus: Test 1: Inhibition of Human BACE. Format: biochemical. The following applies: test not given; follows Tests 1-4, assumed BACE. How it is done:
Test 1: Inhibition of Human BACE
Recombinant BACE (extracellular domain, expressed in baculovirus and purified using standard methods) at 6 nM concentration is incubated with the test compound at various concentrations for 1 hour at room temperature in 100 mM acetate buffer, pH 4.5, containing 0.1% CHAPS. Synthetic peptide substrate Mca-Ser-Glu-Val-Asn-Leu-Asp-Ala-Glu-Phe-Lys(DNP) is added to a final concentration of 3 μM and the increase in fluorescence is recorded at excitation of 325 nm and emission at 400 nm in a microplate spectro-fluorimeter for 20 minutes in 1-minute intervals. IC50 values are calculated from percentage of inhibition of BACE-activity as a function of the test compound concentration.

The conditions of data set [2]: rcm bond, DCM, 40.0 °C.

Where two headings read alike, the source gives them in different places.

T1 sequence (P56817 46-457 limits assumed): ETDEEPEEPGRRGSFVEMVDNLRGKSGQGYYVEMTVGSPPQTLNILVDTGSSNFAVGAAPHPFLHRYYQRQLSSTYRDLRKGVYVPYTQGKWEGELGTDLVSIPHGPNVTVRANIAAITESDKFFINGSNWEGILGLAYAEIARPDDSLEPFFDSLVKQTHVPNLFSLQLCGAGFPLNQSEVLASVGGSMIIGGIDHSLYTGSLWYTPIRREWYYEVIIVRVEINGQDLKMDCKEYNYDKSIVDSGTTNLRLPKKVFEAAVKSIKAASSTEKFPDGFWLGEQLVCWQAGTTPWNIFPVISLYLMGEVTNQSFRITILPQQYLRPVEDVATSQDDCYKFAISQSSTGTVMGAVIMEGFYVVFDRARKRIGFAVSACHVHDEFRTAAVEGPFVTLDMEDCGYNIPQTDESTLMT

The term IC50 denotes the concentration at which inhibition is half-maximal. In turn, `Cc1cc2cc(n1)NCCCCc1cccc(c1)C[C@@H]([C@H](O)CNCc1cccc(C(C)C)c1)NC2=O` [Example 11, (S)-4-[(R)-1-Hydroxy-2-(3-isopropyl-benzylamino)-ethyl]-18-methyl-3,15,17-triaza-tricyclo[14.3.1.1*6,10*]henicosa-1(19),6,8,10(21),16(20),17-hexaen-2-one] registered an IC50 in data set [1] of 40 nM. For `COc1ccc2cc1CC=CCN(C(C)=O)c1cc(cc(Cl)n1)C(=O)N[C@H]([C@H]1CN(Cc3cccc(C(C)C)c3)C(=O)O1)C2`, the ring closure, yield of all isomers in data set [2] (from C=CCc1cc(C[C@H](NC(=O)c2cc(Cl)nc(N(CC=C)C(C)=O)c2)[C@H]2CN(Cc3cccc(C(C)C)c3)C(=O)O2)ccc1OC, Grubbs II (tricyclohexylphosphine[1,3-bis(2,4,6-trimethylphenyl)-4,5-dihydroimidazol-2-ylidene][benzylidene]ruthenium(IV) dichloride), 3.45 mM, 6.0 h) worked out at 77.6%.

Compound `CN(C)C(=O)c1cc2cc(c1)C(=O)N[C@H]([C@H](O)CCl)Cc1cccc(c1)OCC=CCO2` had a ring closure, yield of all isomers in data set [2] (from C=CCOc1cccc(C[C@H](NC(=O)c2cc(OCC=C)cc(C(=O)N(C)C)c2)[C@H](O)CCl)c1, Grubbs II, 18.9 mM, 1.5 h) of 70%.
